{"source": "PubChem BioAssay AID1259407", "about": "(Chemical Carcinogenesis Research Information System (CCRIS), 2018)", "system": "CCRIS mutagenicity, Ames/micronucleus/aberration tests", "experiment": "CCRIS mutagenicity studies", "key": {"[1]": {"details": "Test System: AMES SALMONELLA TYPHIMURIUM, Strain/Indicator: TA100, Metabolic Activation: NONE, Method: STANDARD PLATE"}, "[2]": {"details": "Test System: AMES SALMONELLA TYPHIMURIUM, Strain/Indicator: TA100, Metabolic Activation: RAT, LIVER, S-9, AROCLOR 1254, Method: STANDARD PLATE"}, "[3]": {"details": "Test System: AMES SALMONELLA TYPHIMURIUM, Strain/Indicator: TA1535, Metabolic Activation: NONE, Method: STANDARD PLATE"}, "[4]": {"details": "Test System: AMES SALMONELLA TYPHIMURIUM, Strain/Indicator: TA1538, Metabolic Activation: NONE, Method: STANDARD PLATE"}}, "note": "Activity calls are given as the source filed them. The rule behind the calls is not given here.", "data": [{"smiles": "Cc1cc2c(c3ccc4ccccc4c13)CCC2", "values": [{"measurement": "mutagenic call", "setting": "[1]", "result": "inactive; negative"}, {"measurement": "mutagenic call", "setting": "[2]", "result": "inactive; negative"}]}, {"smiles": "Cc1nc(-c2ccc([N+](=O)[O-])o2)cs1", "values": [{"measurement": "mutagenic call", "setting": "Test System: AMES SALMONELLA TYPHIMURIUM, Strain/Indicator: TA100, Metabolic Activation: RAT, LIVER, S-9, KC500 OR PHENOBARBITAL, Method: LIQUID SUSPENSION", "result": "active; positive"}]}, {"smiles": "C#C[C@]1(O)CC[C@H]2[C@@H]3CCC4=C(CCC(=O)C4)[C@H]3CC[C@@]21C", "values": [{"measurement": "mutagenic call", "setting": "End Point: IN VITRO CHROMOSOMAL ABERRATIONS, Test System: HUMAN PERIPHERAL LYMPHOCYTES, Metabolic Activation: NONE", "result": "inactive; negative"}, {"measurement": "mutagenic call", "setting": "End Point: IN VITRO CHROMOSOMAL ABERRATIONS, Test System: HUMAN PERIPHERAL LYMPHOCYTES, Metabolic Activation: RAT, LIVER, S-9, PHENOBARBITONE", "result": "active; positive (structural changes)"}, {"measurement": "mutagenic call", "setting": "Test System: AMES SALMONELLA TYPHIMURIUM, Strain/Indicator: TA98, Metabolic Activation: MOUSE, LIVER, S-9, Method: STANDARD PLATE", "result": "inactive; negative"}, {"measurement": "mutagenic call", "setting": "Test System: AMES SALMONELLA TYPHIMURIUM, Strain/Indicator: TA98, Metabolic Activation: NONE, Method: STANDARD PLATE", "result": "inactive; negative"}, {"measurement": "mutagenic call", "setting": "Test System: AMES SALMONELLA TYPHIMURIUM, Strain/Indicator: TA98, Metabolic Activation: RAT, LIVER, S-9, AROCLOR 1254, Method: STANDARD PLATE", "result": "inactive; negative"}, {"measurement": "mutagenic call", "setting": "Test System: AMES SALMONELLA TYPHIMURIUM, Strain/Indicator: TA100, Metabolic Activation: MOUSE, LIVER, S-9, Method: STANDARD PLATE", "result": "inactive; negative"}, {"measurement": "mutagenic call", "setting": "[1]", "result": "inactive; negative"}, {"measurement": "mutagenic call", "setting": "[2]", "result": "inactive; negative"}, {"measurement": "mutagenic call", "setting": "Test System: AMES SALMONELLA TYPHIMURIUM, Strain/Indicator: TA1535, Metabolic Activation: MOUSE, LIVER, S-9, Method: STANDARD PLATE", "result": "inactive; negative"}, {"measurement": "mutagenic call", "setting": "[3]", "result": "inactive; negative"}, {"measurement": "mutagenic call", "setting": "Test System: AMES SALMONELLA TYPHIMURIUM, Strain/Indicator: TA1535, Metabolic Activation: RAT, LIVER, S-9, AROCLOR 1254, Method: STANDARD PLATE", "result": "inactive; negative"}, {"measurement": "mutagenic call", "setting": "Test System: AMES SALMONELLA TYPHIMURIUM, Strain/Indicator: TA1537, Metabolic Activation: MOUSE, LIVER, S-9, Method: STANDARD PLATE", "result": "inactive; negative"}, {"measurement": "mutagenic call", "setting": "Test System: AMES SALMONELLA TYPHIMURIUM, Strain/Indicator: TA1537, Metabolic Activation: NONE, Method: STANDARD PLATE", "result": "inactive; negative"}, {"measurement": "mutagenic call", "setting": "Test System: AMES SALMONELLA TYPHIMURIUM, Strain/Indicator: TA1537, Metabolic Activation: RAT, LIVER, S-9, AROCLOR 1254, Method: STANDARD PLATE", "result": "inactive; negative"}, {"measurement": "mutagenic call", "setting": "Test System: AMES SALMONELLA TYPHIMURIUM, Strain/Indicator: TA1538, Metabolic Activation: MOUSE, LIVER, S-9, Method: STANDARD PLATE", "result": "inactive; negative"}, {"measurement": "mutagenic call", "setting": "[4]", "result": "inactive; negative"}, {"measurement": "mutagenic call", "setting": "Test System: AMES SALMONELLA TYPHIMURIUM, Strain/Indicator: TA1538, Metabolic Activation: RAT, LIVER, S-9, AROCLOR 1254, Method: STANDARD PLATE", "result": "inactive; negative"}]}, {"smiles": "c1ccc2c(c1)c1c(c3c4ccccc4c4ccccc4c23)O1", "values": [{"measurement": "mutagenic call", "setting": "Test System: AMES SALMONELLA TYPHIMURIUM, Strain/Indicator: TA98, Metabolic Activation: NONE, Method: PREINCUBATION (KCL-CONTAINING MEDIUM)", "result": "active; positive"}, {"measurement": "mutagenic call", "setting": "Test System: AMES SALMONELLA TYPHIMURIUM, Strain/Indicator: TA98, Metabolic Activation: NONE, Method: PREINCUBATION (KCL-FREE MEDIUM)", "result": "active; positive"}, {"measurement": "mutagenic call", "setting": "Test System: AMES SALMONELLA TYPHIMURIUM, Strain/Indicator: TA100, Metabolic Activation: NONE, Method: PREINCUBATION (KCL-FREE OR KCL-CONTAINING MEDIA)", "result": "active; positive"}]}, {"smiles": "CC(=O)OCc1cc(C(C)=O)ccc1OC(C)=O", "values": [{"measurement": "mutagenic call", "setting": "Test System: AMES SALMONELLA TYPHIMURIUM, Strain/Indicator: TA100(PKM101), Metabolic Activation: NONE, Method: STANDARD PLATE", "result": "active; positive"}, {"measurement": "mutagenic call", "setting": "[1]", "result": "active; positive"}, {"measurement": "mutagenic call", "setting": "[3]", "result": "inactive; negative"}, {"measurement": "mutagenic call", "setting": "[4]", "result": "inactive; negative"}, {"measurement": "mutagenic call", "setting": "Test System: E. COLI, Strain/Indicator: TK701(PKM101), Metabolic Activation: NONE, Method: STANDARD PLATE", "result": "active; positive"}, {"measurement": "mutagenic call", "setting": "Test System: E. COLI, Strain/Indicator: TK701, Metabolic Activation: NONE, Method: STANDARD PLATE", "result": "active; positive"}, {"measurement": "mutagenic call", "setting": "Test System: E. COLI, Strain/Indicator: TK702(PKM101), Metabolic Activation: NONE, Method: STANDARD PLATE", "result": "active; positive"}, {"measurement": "mutagenic call", "setting": "Test System: E. COLI, Strain/Indicator: TK702, Metabolic Activation: NONE, Method: STANDARD PLATE", "result": "inactive; negative"}]}, {"smiles": "O=C1OC(=O)c2cc([N+](=O)[O-])ccc21", "values": [{"measurement": "mutagenic call", "setting": "Test System: AMES SALMONELLA TYPHIMURIUM, Strain/Indicator: TA97, Metabolic Activation: HAMSTER, LIVER, S-9, AROCLOR 1254 (10%), Method: PREINCUBATION", "result": "inactive; negative"}, {"measurement": "mutagenic call", "setting": "Test System: AMES SALMONELLA TYPHIMURIUM, Strain/Indicator: TA97, Metabolic Activation: NONE, Method: PREINCUBATION", "result": "active; positive"}, {"measurement": "mutagenic call", "setting": "Test System: AMES SALMONELLA TYPHIMURIUM, Strain/Indicator: TA97, Metabolic Activation: RAT, LIVER, S-9, AROCLOR 1254 (10%), Method: PREINCUBATION", "result": "active; positive"}, {"measurement": "mutagenic call", "setting": "Test System: AMES SALMONELLA TYPHIMURIUM, Strain/Indicator: TA98, Metabolic Activation: HAMSTER, LIVER, S-9, AROCLOR 1254 (10%), Method: PREINCUBATION", "result": "active; positive"}, {"measurement": "mutagenic call", "setting": "Test System: AMES SALMONELLA TYPHIMURIUM, Strain/Indicator: TA98, Metabolic Activation: NONE, Method: PREINCUBATION", "result": "active; positive"}, {"measurement": "mutagenic call", "setting": "Test System: AMES SALMONELLA TYPHIMURIUM, Strain/Indicator: TA98, Metabolic Activation: RAT, LIVER, S-9, AROCLOR 1254 (10%), Method: PREINCUBATION", "result": "active; positive"}, {"measurement": "mutagenic call", "setting": "Test System: AMES SALMONELLA TYPHIMURIUM, Strain/Indicator: TA100, Metabolic Activation: HAMSTER, LIVER, S-9, AROCLOR 1254 (10%), Method: PREINCUBATION", "result": "inactive; negative"}, {"measurement": "mutagenic call", "setting": "Test System: AMES SALMONELLA TYPHIMURIUM, Strain/Indicator: TA100, Metabolic Activation: NONE, Method: PREINCUBATION", "result": "inactive; negative"}, {"measurement": "mutagenic call", "setting": "Test System: AMES SALMONELLA TYPHIMURIUM, Strain/Indicator: TA100, Metabolic Activation: RAT, LIVER, S-9, AROCLOR 1254 (10%), Method: PREINCUBATION", "result": "inactive; negative"}, {"measurement": "mutagenic call", "setting": "Test System: AMES SALMONELLA TYPHIMURIUM, Strain/Indicator: TA1535, Metabolic Activation: HAMSTER, LIVER, S-9, AROCLOR 1254 (10%), Method: PREINCUBATION", "result": "active; positive"}, {"measurement": "mutagenic call", "setting": "Test System: AMES SALMONELLA TYPHIMURIUM, Strain/Indicator: TA1535, Metabolic Activation: NONE, Method: PREINCUBATION", "result": "inactive; negative"}, {"measurement": "mutagenic call", "setting": "Test System: AMES SALMONELLA TYPHIMURIUM, Strain/Indicator: TA1535, Metabolic Activation: RAT, LIVER, S-9, AROCLOR 1254 (10%), Method: PREINCUBATION", "result": "inactive; negative"}, {"measurement": "mutagenic call", "setting": "Test System: AMES SALMONELLA TYPHIMURIUM, Strain/Indicator: TA1537, Metabolic Activation: HAMSTER, LIVER, S-9, AROCLOR 1254 (10%), Method: PREINCUBATION", "result": "inactive; negative"}, {"measurement": "mutagenic call", "setting": "Test System: AMES SALMONELLA TYPHIMURIUM, Strain/Indicator: TA1537, Metabolic Activation: NONE, Method: PREINCUBATION", "result": "active; positive"}, {"measurement": "mutagenic call", "setting": "Test System: AMES SALMONELLA TYPHIMURIUM, Strain/Indicator: TA1537, Metabolic Activation: RAT, LIVER, S-9, AROCLOR 1254 (10%), Method: PREINCUBATION", "result": "active; positive"}]}]}
